According to patent publication US9084791B2, “Method of inhibiting myopia and application of an adenylyl cyclase inhibitor as a drug for inhibiting myopia” (SCHOOL OF OPHTHALMOLOGY AND OPTOMETRY, WENZHOU MEDICAL …, priority 2010, dated 2015):

Test system: form-deprivation myopia of guinea pigs
Experiment: Monocular form-deprivation myopia in guinea pigs, sub-conjunctival injection
Format: in vivo, guinea pig
Settings: form-deprivation eyes, 1 μM and 100 μM sub-conjunctival injection daily, after 4 weeks, vs vehicle control group
Method: Experimental animals were 3 weeks old, UK variety, three-color and short-haired guinea pigs. Monocular form-deprivation (FD) was performed by using a facemask, and the form-deprivation eyes were treated with adenylyl cyclase inhibitor (ACI) SQ22536 at different concentrations (for example, 1 μM and 100 μM) by sub-conjunctival injection, so as to differently decrease intraocular cAMP levels. Animals were divided into 4 groups randomly: form-deprivation control group (FD+non-injection), form-deprivation+vehicle control group (FD+vehicle) (vehicle here refers to 0.9% saline), form-deprivation+drug groups (FD+1 μM SQ22536 group and FD+100 μM SQ22536 group). Drugs were sub-conjunctivally injected at 9:00 am every day for 4 weeks. The contralateral eyes were not treated. Refraction were measured with an infrared eccentric refractometer (EIR). Corneal curvature radii were measured with a keratometer. Eye axis parameters, such as vitreous chamber depths and axial lengths, were measured with an A-scan ultrasonograph (11 MHz), respectively, before experiment, 2 weeks after treatment, and 4 weeks after treatment.

Nc1ncnc2c1ncn2C1CCCO1 (stereo not drawn) [SQ22536, 9-(Tetrahydro-2-furanyl)-9H-purin-6-amine]
myopic refractive error (refraction difference between experimental eye and contralateral eye) (time- and concentration-dependent effect (FIG. 1)): less than that of the vehicle control group
vitreous chamber elongation (vitreous chamber depth difference between experimental eye and contralateral eye) (time- and concentration-dependent effect (FIG. 2)): significantly less than that of the vehicle control group
axial elongation (axial length difference between experimental eye and contralateral eye) (time- and concentration-dependent effect (FIG. 3)): significantly less than that of the vehicle control group
